Target: T1, human GR (Homo sapiens, UniProt P04150)
T1 construct: naturally expresses the human GR; endogenous in cells
T1 sequence (P04150 1-777): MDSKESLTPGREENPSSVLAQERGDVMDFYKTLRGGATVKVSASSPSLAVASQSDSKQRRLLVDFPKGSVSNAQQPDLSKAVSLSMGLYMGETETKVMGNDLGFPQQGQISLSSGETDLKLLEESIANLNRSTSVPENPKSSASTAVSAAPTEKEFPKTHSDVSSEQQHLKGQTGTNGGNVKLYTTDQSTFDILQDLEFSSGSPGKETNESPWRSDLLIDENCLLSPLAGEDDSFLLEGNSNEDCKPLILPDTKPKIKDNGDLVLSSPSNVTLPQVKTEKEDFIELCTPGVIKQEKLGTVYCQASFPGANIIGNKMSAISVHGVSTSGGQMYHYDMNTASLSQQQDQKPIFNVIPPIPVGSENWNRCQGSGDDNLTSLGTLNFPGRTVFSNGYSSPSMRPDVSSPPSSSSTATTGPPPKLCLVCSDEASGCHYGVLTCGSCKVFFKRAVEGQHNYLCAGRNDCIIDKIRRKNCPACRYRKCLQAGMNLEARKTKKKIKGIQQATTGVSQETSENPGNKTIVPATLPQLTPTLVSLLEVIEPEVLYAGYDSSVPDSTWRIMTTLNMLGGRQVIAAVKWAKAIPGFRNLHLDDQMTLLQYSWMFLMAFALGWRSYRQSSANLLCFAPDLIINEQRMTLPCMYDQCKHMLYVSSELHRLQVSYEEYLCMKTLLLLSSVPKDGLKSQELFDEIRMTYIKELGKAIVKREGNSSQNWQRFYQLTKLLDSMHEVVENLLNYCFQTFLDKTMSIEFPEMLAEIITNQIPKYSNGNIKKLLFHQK
Assay: Trans-Activation Modulation of Glucocorticoid Receptor Assay (GRAMMER), MMTV-LUC reporter in A549 cells
Assay type: cell-based
Conditions: for Transactivation A549 Cells GRAMMER Emax (%): Emax relative to the activity obtained with 300 nM dexamethasone; for EC50: inflection point (IP), MMTV-LUC reporter, read-out: Transactivation A549 Cells GRAMMER IP; for Emax: A549, Emax relative to the activity obtained with 300 nM dexamethasone, read-out: Transactivation A549 Cells GRAMMER Emax (%)
Text: This assay assesses the ability of test compounds to control transcription from the MMTV-LUC reporter gene in lung adenocarcinoma A549 cells or HeLa cells, a human […] cell line that naturally expresses the human GR. The assay measures induction of a modified MMTV LTR/promoter linked to the LUC reporter gene.
The routine transient assay consists of plating 7,000-25,000 cells/well of a white, clear-bottom 96-well plate. Alternatively, 384-well plates can be used at a cell concentration of 10,000/well. The media that the cells are plated in is “exponential growth medium” which consists of phenol red-free RPMI1640 containing 10% FBS, 4 mM L-glutamine, 20 mM HEPES, 10 ug/mL human insulin, and 20 ug/mL gentamicin. Incubator conditions are 37° C. and 5% CO2. The transfection is done in batch mode. The cells are trypsinized and counted to the right cell number in the proper amount of fresh media. It is then gently mixed with the FuGene6/DNA mix and plated onto the 96 or 384-well plate, all the wells receive 100 uL or 40 uL, respectively, of medium+lipid/DNA complex then incubated 37° C. overnight. The transfection cocktail consists of serum-free OptiMEM, FuGene6 reagent and DNA. The manufacturer's (Roche Biochemical) protocol for cocktail setup is as follows: The lipid to DNA ratio is approximately 2.5:1 and the incubation time is 20 min at room temperature. Sixteen to 24 hours after transfection, the cells are treated with dexamethasone to a final concentration of 10 nM as well as the compound of interest, such that final DMSO (vehicle) concentration is equal to or less than 1%. Each plate also contains samples that are treated with 10 nM dexamethasone alone, which is used as the 100% activity control. The cells are exposed to the compounds for 24 hours. After 24 hours, the cells are lysed by a Promega cell culture lysis buffer for approximately 30 min and then the luciferase activity in the extracts is assayed in the 96-well format luminometer. In 384-well format, Steady-Glo (Promega) or Steady-Lite (PerkinElmer) can be used by adding an equal volume of reagent to the media present in each well. Activity induced by 10 nM dexamethasone alone is set at 100% activity. Antagonist activity is calculated by determining the decrease in dexamethasone-induced activity in response to compound treatment relative to samples that were treated with dexamethasone alone. Results are expressed as % inhibition of 10 nM dexamethasone activity or as fold of 10 nM dexamethasone activity. This transactivation assay can be performed in an agonist and antagonist mode to identify these different activities.
Activity of test compounds is calculated as the Emax relative to the activity obtained with 300 nM dexamethasone. Activity of test compounds is calculated as the Emax relative to the activity obtained with 300 nM DEX. The exemplified tissue selective glucocorticoid receptor modulators of the present invention display agonist activity in this assay of greater than 5% and less than 100%, and maximal transactivation activity less then maximal transrepression activity. […]

| SMILES | Transactivation A549 Cells GRAMMER Emax (%) | EC50 [nM] | Emax [%] |
| --- | --- | --- | --- |
| C[C@]12Cc3cnn(-c4ccc(F)cc4)c3C=C1CC[C@@]2(CO)CC(O)C1CC1 (single isomer, unassigned) [Example 20b, 1-cyclopropyl-2-[(4αS)-1-(4-fluorophenyl)-5-(hydroxymethyl)-4α-methyl-1,4,4α,5,6,7-hexahydrocyclopenta[f]indazol-5-yl]ethanol] | 11.3 | 808 |  |
| COc1cccnc1C(O)C[C@]1(CO)CCC2=Cc3c(cnn3-c3ccc(F)cc3)C[C@@]21C (single isomer, unassigned) [Example 21a] | 32.4 | 152 |  |
| COc1cccnc1C(O)C[C@]1(CO)CCC2=Cc3c(cnn3-c3ccc(F)cc3)C[C@@]21C (single isomer, unassigned) [Example 21b] | 64.8 | 40.2 |  |
| C[C@]12Cc3cnn(-c4ccc(F)cc4)c3C=C1CC[C@@]2(CO)CC(O)c1ccc(F)cn1 (single isomer, unassigned) [Example 22a] |  | 28.8 | 63.2 |
| C[C@]12Cc3cnn(-c4ccc(F)cc4)c3C=C1CC[C@@]2(CO)CC(O)c1ccc(F)cn1 (single isomer, unassigned) [Example 22b] | 74.3 | 64.2 |  |
| C[C@]12Cc3cnn(-c4ccccc4)c3C=C1CC[C@@]2(CO)CC(O)c1ccccn1 (single isomer, unassigned) [Example 23a] |  | 49.7 | 39.4 |
| C[C@]12Cc3cnn(-c4ccccc4)c3C=C1CC[C@@]2(CO)CC(O)c1ccccn1 (single isomer, unassigned) [Example 23b] | 47.7 | 63.2 |  |
| COc1ccc(C(O)C[C@]2(CO)CCC3=Cc4c(cnn4-c4ccc(F)cc4)C[C@@]32C)nc1 (single isomer, unassigned) [Example 24a] |  | 470 | 7.6 |
| COc1ccc(C(O)C[C@]2(CO)CCC3=Cc4c(cnn4-c4ccc(F)cc4)C[C@@]32C)nc1 (single isomer, unassigned) [Example 24b] | 4.5 | 1000 |  |
| CC(O)(C[C@]1(CO)CCC2=Cc3c(cnn3-c3ccc(F)cc3)C[C@@]21C)c1cccnc1 (single isomer, unassigned) [Example 25a] |  | 291 | 7.9 |
| CC(O)(C[C@]1(CO)CCC2=Cc3c(cnn3-c3ccc(F)cc3)C[C@@]21C)c1cccnc1 (single isomer, unassigned) [Example 25b] | 7.6 | 401 |  |
| COc1cccnc1C(O)C[C@]1(CO)CCC2=Cc3c(cnn3-c3cccc(F)c3)C[C@@]21C (single isomer, unassigned) [Example 26a] | 24.8 | 144 |  |
| COc1cccnc1C(O)C[C@]1(CO)CCC2=Cc3c(cnn3-c3cccc(F)c3)C[C@@]21C (single isomer, unassigned) [Example 26b] | 4.3 | 653 |  |
| C[C@]12Cc3cnn(-c4cccc(F)c4)c3C=C1CC[C@@]2(CO)CC(O)c1cccnc1 (single isomer, unassigned) [Example 27a] | 6.8 | 357 |  |
| C[C@]12Cc3cnn(-c4cccc(F)c4)c3C=C1CC[C@@]2(CO)CC(O)c1cccnc1 (single isomer, unassigned) [Example 27b] | 15.4 | 634 |  |
| C[C@]12Cc3cnn(-c4ccc(F)cc4)c3C=C1CC[C@@]2(CO)CC(O)C(F)(F)F (single isomer, unassigned) [Example 28a] |  | 107 | 60.4 |
| C[C@]12Cc3cnn(-c4ccc(F)cc4)c3C=C1CC[C@@]2(CO)CC(O)C(F)(F)F (single isomer, unassigned) [Example 28b] | 42.3 | 107 |  |
| C[C@]12Cc3cnn(-c4ccccc4)c3C=C1CC[C@@]2(CO)CC(O)c1cccnc1 (single isomer, unassigned) [Example 29a] | 30.7 | 168 |  |
| C[C@]12Cc3cnn(-c4ccccc4)c3C=C1CC[C@@]2(CO)CC(O)c1cccnc1 (single isomer, unassigned) [Example 29b] | 13.7 | 121 |  |
| C[C@]12Cc3cnn(-c4ccc(F)cc4)c3C=C1CC[C@@]2(CO)CC(O)c1ccccc1F (stereo partly drawn) [Example 4, 1-(2-fluorophenyl)-2-[(4αS,5R)-1-(4-fluorophenyl)-5-(hydroxymethyl)-4α-methyl-1,4,4α,5,6,7-hexahydrocyclopenta[f]indazol-5-yl]ethanol] |  | 39.7 | 80.3 |
| C[C@]12Cc3cnn(-c4ccc(F)cc4)c3C=C1CC[C@@]2(CO)CC(O)c1cccc(Cl)c1 (stereo partly drawn) [Example 8, 1-(3-chlorophenyl)-2-[(4αS,5R)-1-(4-fluorophenyl)-5-(hydroxymethyl)-4α-methyl-1,4,4α,5,6,7-hexahydrocyclopenta[f]indazol-5-yl]ethanol] |  | 32.2 | 56 |
| C[C@]12Cc3cnn(-c4ccc(F)cc4)c3C=C1CC[C@@]2(CO)CC(O)c1cc(F)cc(F)c1 (stereo partly drawn) [Example 9, 1-(3,5-difluorophenyl)-2-[(4αS,5R)-1-(4-fluorophenyl)-5-(hydroxymethyl)-4α-methyl-1,4,4α,5,6,7-hexahydrocyclopenta[f]indazol-5-yl]ethanol] |  | 3.2 | 80.3 |
| C[C@]12Cc3cnn(-c4ccc(F)cc4)c3C=C1CC[C@@]2(CO)CC1OC(=O)c2ccccc21 (stereo partly drawn) [Example 11, 3-{[(4αS,5R)-1-(4-fluorophenyl)-5-(hydroxymethyl)-4α-methyl-1,4,4α,5,6,7,7a,8-octahydrocyclopenta[f]indazol-5-yl]methyl}-2-benzofuran-1(3H)-one] |  | 332 | 41.8 |
| Cc1ccc(C(O)C[C@]2(CO)CCC3=Cc4c(cnn4-c4ccc(F)cc4)C[C@@]32C)nc1 (stereo partly drawn) [Example 16, 2-[(4αS,5R)-1-(4-fluorophenyl)-5-(hydroxymethyl)-4α-methyl-1,4,4α,5,6,7-hexahydrocyclopenta[f]indazol-5-yl]-1-(5-methylpyridin-2-yl)ethanol] |  | 18.4 | 38.3 |
